From patent publication US11596644B2, “Method for treating post-prandial hypoglycemia” (AVOLYNT, priority 2018, dated 2023)
Marks after values point to notes of the source that are not given here.

Legend:
[1] = tested on: STZ-induced diabetic rats; test: OGTT in STZ-induced diabetic rats (Example 8); format: in vivo, rat; details: for Plasma glucose 0 hr: before dosing; for Plasma glucose 0 hr / Plasma glucose 0.5 hr / Plasma glucose 1 hr / Plasma glucose 2 hr / Plasma glucose 3 hr / ΔAUC (0-1) / ΔAUC (0-1) (% of Control): glucose 2 g/kg, mean ± S.E.M.; for PG elevation after glucose administration: 0.03 and 0.1 mg/kg oral, OGTT 2 g/kg
Protocol: (§1) Study in diabetic rats with glucose. Diabetic rats, induced by intravenous injection of streptozotocin (STZ; 40 mg/kg), were used to determining plasma glucose concentration (PG) 1 hr after oral glucose tolerance test (OGTT). […] Blood was collected via the caudal artery immediately before dosing and 0.5, 1, 2, and 3 hr after dosing. The glucose concentration measurement in plasma used Glucose CII-Test Wako kit (Wako Pure Chemicals Industries, Ltd., Osaka, Japan). The variables used for efficacy assessment were the measurement values of the plasma glucose concentration and the area under the curve for plasma glucose concentration through 1 hr after loading (ΔAUC0-1 hr). The ΔAUC0-1 hr for plasma glucose was calculated based on the trapezoid method using the change of plasma glucose concentrations from pre-value (0 hr).

[2] = tested on: STZ-induced diabetic rats; test: Oral mixed-carbohydrate tolerance test (OMCTT) in STZ-induced diabetic rats (Example 9); format: in vivo, rat; details: for Plasma glucose 0 hr: before dosing; for Plasma glucose 0 hr / Plasma glucose 0.5 hr / Plasma glucose 1 hr / Plasma glucose 2 hr / Plasma glucose 3 hr / ΔAUC (0-1) / ΔAUC (0-1) (% of Control): mixed-carbohydrate load, mean ± S.E.M.; for PG elevation after glucose administration: 0.03 and 0.1 mg/kg oral, OMCTT
Protocol: as §1, with “with mixed carbohydrates.” for “with glucose.”, “oral mixed-carbohydrate” for “oral glucose”, “test (OMCTT).” for “test (OGTT).”

[3] = tested on: healthy adult male volunteers; test: Repeat dose study in humans, pharmacodynamic parameters after meals; format: in vivo, human; details: repeat dosing
Protocol: Repeat dose study in humans. Oral doses of 2 mg, 5 mg, 10 mg, 20 mg, of mizagliflozin, placebo or miglitol 50 mg per dose three times daily to healthy adult male volunteers by a randomized, placebo-controlled, parallel-group, double-blind comparison method. The dose was orally administered with approximately 150 mL of water once daily immediately before breakfast on Days 1 and 13, and three times daily immediately before every meal on Days 3 to 12.
Changes in the following parameters and ΔAUC from 0 to t* hours after breakfast, lunch, and evening meal were measured: Blood glucose level, Serum insulin concentration, Blood active GLP-1 concentration, and Blood total GIP concentration, where t=0.5, 1, 1.5, 2, and 3 (t=0.5, 1, 1.5, 2, 3, and 5 only after breakfast).
In the miglitol group, hyperglycemia was suppressed after breakfast, lunch, and evening meal, as compared to the placebo group. […] These pharmacodynamic effects more or less persisted during 10-day repeated administration. There was no correlation between plasma mizagliflozin concentration and the pharmacodynamic effects. Measurements in Tables 5-8 were performed on Day 3 after breakfast.

[4] = 50 mg per dose, Day 3 after breakfast

Compound | Plasma glucose 0 hr ([1]; 0.03 mg/kg oral) | Plasma glucose 0.5 hr ([1]; 0.03 mg/kg oral) | Plasma glucose 1 hr ([1]; 0.03 mg/kg oral) | Plasma glucose 2 hr ([1]; 0.03 mg/kg oral) | Plasma glucose 3 hr ([1]; 0.03 mg/kg oral) | ΔAUC (0-1) ([1]; 0.03 mg/kg oral) | ΔAUC (0-1) (% of Control) ([1]; 0.03 mg/kg oral) | Plasma glucose 0 hr ([1]; 0.1 mg/kg oral) | Plasma glucose 0.5 hr ([1]; 0.1 mg/kg oral) | Plasma glucose 1 hr ([1]; 0.1 mg/kg oral) | Plasma glucose 2 hr ([1]; 0.1 mg/kg oral) | Plasma glucose 3 hr ([1]; 0.1 mg/kg oral) | ΔAUC (0-1) ([1]; 0.1 mg/kg oral) | ΔAUC (0-1) (% of Control) ([1]; 0.1 mg/kg oral) | PG elevation after glucose administration [1] | Plasma glucose 0 hr ([2]; 0.03 mg/kg oral) | Plasma glucose 0.5 hr ([2]; 0.03 mg/kg oral) | Plasma glucose 1 hr ([2]; 0.03 mg/kg oral) | Plasma glucose 2 hr ([2]; 0.03 mg/kg oral) | PG elevation after glucose administration [2] | further results
Cc1cc(OCCCN)ccc1Cc1c(O[C@@H]2O[C@H](CO)[C@@H](O)[C@H](O)[C@H]2O)n[nH]c1C(C)C [KGA-2586] | 128 ± 4 mg/dL | 351 ± 22 mg/dL | 350 ± 32 mg/dL | 154 ± 20 mg/dL | 86 ± 4 mg/dL | 167 ± 20 mg·h/dL | 86 ± 10 % of Control | 121 ± 8 ^ mg/dL | 236 ± 18^z mg/dL | 257 ± 24^x mg/dL | 193 ± 21^x mg/dL | 105 ± 12^ mg/dL | 91 ± 11^y mg · dL^−1 · hr | 47 ± 6^y % of Control | inhibited PG elevation after glucose administration dose dependently | 118 ± 8 mg/dL | 269 ± 5^y mg/dL | 235 ± 8 mg/dL | 112 ± 11 mg/dL | inhibited PG elevation after glucose administration dose dependently | Plasma glucose 3 hr ([2]; 0.03 mg/kg oral): 108 ± 10 mg/dL; ΔAUC (0-1) ([2]; 0.03 mg/kg oral): 105 ± 4^x mg · dL^−1 · hr; ΔAUC (0-1) (% of Control) ([2]; 0.03 mg/kg oral): 64 ± 2^x % of Control; Plasma glucose 0 hr ([2]; 0.1 mg/kg oral): 126 ± 7^ mg/dL; Plasma glucose 0.5 hr ([2]; 0.1 mg/kg oral): 213 ± 11^z mg/dL; Plasma glucose 1 hr ([2]; 0.1 mg/kg oral): 215 ± 13 mg/dL; Plasma glucose 2 hr ([2]; 0.1 mg/kg oral): 144 ± 12 mg/dL; Plasma glucose 3 hr ([2]; 0.1 mg/kg oral): 108 ± 8^ mg/dL; ΔAUC (0-1) ([2]; 0.1 mg/kg oral): 65 ± 6^z mg · dL^−1 · hr; ΔAUC (0-1) (% of Control) ([2]; 0.1 mg/kg oral): 40 ± 4^z % of Control
Cc1cc(OCCCNCC(N)=O)ccc1Cc1c(O[C@@H]2O[C@H](CO)[C@@H](O)[C@H](O)[C@H]2O)n[nH]c1C(C)C [KGA-2588] | 137 ± 6 mg/dL | 351 ± 29 mg/dL | 363 ± 48 mg/dL | 185 ± 25 mg/dL | 101 ± 4 mg/dL | 163 ± 23 mg·h/dL | 84 ± 12 % of Control | 128 ± 8 ^ mg/dL | 249 ± 32^y mg/dL | 286 ± 51^ mg/dL | 221 ± 33^x mg/dL | 145 ± 5^z mg/dL | 100 ± 23^x mg · dL^−1 · hr | 51 ± 12^x % of Control | inhibited PG elevation after glucose administration dose dependently | 120 ± 3 mg/dL | 291 ± 22 mg/dL | 248 ± 17 mg/dL | 109 ± 7 mg/dL | inhibited PG elevation after glucose administration dose dependently | Plasma glucose 3 hr ([2]; 0.03 mg/kg oral): 100 ± 6 mg/dL; ΔAUC (0-1) ([2]; 0.03 mg/kg oral): 117 ± 14 mg·h/dL; ΔAUC (0-1) (% of Control) ([2]; 0.03 mg/kg oral): 72 ± 9 % of Control; Plasma glucose 0 hr ([2]; 0.1 mg/kg oral): 123 ± 8 mg/dL; Plasma glucose 0.5 hr ([2]; 0.1 mg/kg oral): 258 ± 25^x mg/dL; Plasma glucose 1 hr ([2]; 0.1 mg/kg oral): 224 ± 23 mg/dL; Plasma glucose 2 hr ([2]; 0.1 mg/kg oral): 132 ± 4 mg/dL; Plasma glucose 3 hr ([2]; 0.1 mg/kg oral): 114 ± 6 mg/dL; ΔAUC (0-1) ([2]; 0.1 mg/kg oral): 93 ± 13 mg·h/dL; ΔAUC (0-1) (% of Control) ([2]; 0.1 mg/kg oral): 57 ± 8 % of Control
Cc1cc(OCCCNCCC(N)=O)ccc1Cc1c(O[C@@H]2O[C@H](CO)[C@@H](O)[C@H](O)[C@H]2O)n[nH]c1C(C)C [KGA-2727] | 120 ± 9 mg/dL | 354 ± 34 mg/dL | 342 ± 42 mg/dL | 155 ± 24 mg/dL | 85 ± 6 mg/dL | 172 ± 21 mg·h/dL | 89 ± 11 % of Control | 116 ± 6 ^ mg/dL | 233 ± 15^y mg/dL | 262 ± 19^ mg/dL | 194 ± 12^x mg/dL | 102 ± 16^ mg/dL | 95 ± 14^y mg · dL^−1 · hr | 49 ± 7^y % of Control | inhibited PG elevation after glucose administration dose dependently | 114 ± 7 mg/dL | 317 ± 28 mg/dL | 250 ± 30 mg/dL | 114 ± 5 mg/dL | inhibited PG elevation after glucose administration dose dependently | Plasma glucose 3 hr ([2]; 0.03 mg/kg oral): 104 ± 7 mg/dL; ΔAUC (0-1) ([2]; 0.03 mg/kg oral): 135 ± 20 mg·h/dL; ΔAUC (0-1) (% of Control) ([2]; 0.03 mg/kg oral): 83 ± 12 % of Control; Plasma glucose 0 hr ([2]; 0.1 mg/kg oral): 124 ± 8 mg/dL; Plasma glucose 0.5 hr ([2]; 0.1 mg/kg oral): 240 ± 17^y mg/dL; Plasma glucose 1 hr ([2]; 0.1 mg/kg oral): 248 ± 29 mg/dL; Plasma glucose 2 hr ([2]; 0.1 mg/kg oral): 133 ± 4 mg/dL; Plasma glucose 3 hr ([2]; 0.1 mg/kg oral): 106 ± 9 mg/dL; ΔAUC (0-1) ([2]; 0.1 mg/kg oral): 89 ± 12 mg·h/dL; ΔAUC (0-1) (% of Control) ([2]; 0.1 mg/kg oral): 55 ± 7 % of Control
CC(C)c1[nH]nc(O[C@@H]2O[C@H](CO)[C@@H](O)[C@H](O)[C@H]2O)c1Cc1ccc(CCCC(=O)NC(C)(C)C(=O)N2CCNCC2)cc1 [KGA-2891] | – | – | – | – | – | – | – | – | – | – | – | – | – | – | inhibited PG elevation after glucose administration dose dependently | – | – | – | – | inhibited PG elevation after glucose administration dose dependently | –
OCCN1C[C@H](O)[C@@H](O)[C@H](O)[C@H]1CO [Miglitol, miglitol, reference compound] | – | – | – | – | – | – | – | – | – | – | – | – | – | – | – | – | – | – | – | – | AUC 0-5 GIP [3, 4]: 897.03 pg·h/mL; AUC 0-5 GLP-1 (active) [3, 4]: 20.5 pmol·h/L; AUC 0-5 Insulin [3, 4]: 138.33 uU*h/ml; AUC 0-5 glucose [3, 4]: 543.7 mg·h/dL; GIP (peak) [3, 4]: 235 pg/mL; GLP-1 (active) (peak) [3, 4]: 6.21 pmol/L; Glucose (peak) [3, 4]: 121.6 mg/dL; Insulin (peak) [3, 4]: 40.4 uU/ml; Time (h) to peak, GIP [3, 4]: 3 h; Time (h) to peak, GLP-1 (active) [3, 4]: 0.5 h; Time (h) to peak, glucose [3, 4]: 1.5 h; Time (h) to peak, insulin [3, 4]: 2 h; active GLP-1 concentration ([3]; healthy adult male volunteers): a tendency toward increase; hyperglycemia after breakfast, lunch, and evening meal ([3]; healthy adult male volunteers): suppressed; insulin secretion ([3]; healthy adult male volunteers): inhibition of insulin secretion; total GIP concentration ([3]; healthy adult male volunteers): inhibition of increase in total GIP concentration; total GLP-1 concentration ([3]; healthy adult male volunteers): an increase in total GLP-1 concentration
